According to patent publication US20070225351A1, “Methods and compositions for controlling body weight and appetite” (priority 2002, published 2007):

How the values were obtained:
[1] = 13-week oral toxicity study in rats (body weight, food consumption, clinical pathology, organ weights); type: in vivo, rat; settings: for mean cumulative body weight gain, lower than control: end of 13-week study; for mean body weight, lower than control: end of study
Method: One hundred and forty Crl:CD®(SD)IGS BR rats were divided into 7 groups of 20 rats (ten male and ten female). […] Individual body weights were recorded at least weekly, beginning approximately two weeks prior to test article administration (study week-2). Mean body weights and mean body weight changes were calculated for the corresponding intervals. Final body weights (fasted) were recorded prior to the scheduled necropsy.
For toxicology assessment, all animals were observed three times daily for mortality and moribundity. Clinical examinations were performed daily and detailed physical examinations were performed weekly. Following 13 weeks of dose administration, all surviving animals were euthanized.

[2] = Toxicokinetic evaluation in rats; settings: rat, in vivo; for AUC(0-t): Crl:CD(SD)IGS BR, po, 10 mg/kg/day, AUC0-24 h
Method: For toxicokinetic evaluation, all animals were observed twice daily for mortality and moribundity. Blood samples were collected from three animals/sex/group at 0 (pre-dose), 1, 2, 4, 8 and 24 hours after dose administration on study days 0 and 87. All toxicokinetic animals were euthanized and discarded following the final blood collection (study day 88).

[3] = target: norepinephrine transporter (Rattus norvegicus, UniProt Q63380); settings: from Table 1
Sequence of norepinephrine transporter (Q63380 1-617): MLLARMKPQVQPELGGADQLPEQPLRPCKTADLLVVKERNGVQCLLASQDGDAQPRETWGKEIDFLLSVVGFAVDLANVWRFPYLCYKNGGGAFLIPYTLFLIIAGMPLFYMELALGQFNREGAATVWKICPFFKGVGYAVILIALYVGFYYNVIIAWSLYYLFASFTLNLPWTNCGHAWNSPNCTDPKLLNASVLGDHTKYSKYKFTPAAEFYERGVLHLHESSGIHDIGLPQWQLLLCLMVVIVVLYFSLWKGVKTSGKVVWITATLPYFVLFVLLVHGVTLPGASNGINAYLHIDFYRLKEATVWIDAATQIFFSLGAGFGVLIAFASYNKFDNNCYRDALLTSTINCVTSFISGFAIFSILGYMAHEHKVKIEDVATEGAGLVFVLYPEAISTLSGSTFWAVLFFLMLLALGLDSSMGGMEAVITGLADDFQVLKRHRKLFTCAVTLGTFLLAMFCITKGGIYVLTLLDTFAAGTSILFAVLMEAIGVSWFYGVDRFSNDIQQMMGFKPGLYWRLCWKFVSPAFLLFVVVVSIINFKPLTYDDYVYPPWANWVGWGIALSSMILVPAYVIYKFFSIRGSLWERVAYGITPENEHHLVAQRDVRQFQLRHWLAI
Method: Reactions were carried out in 50 mM TRIS-HCl (pH 7.4), containing 300 mM NaCl and 5 mM KCl at 0° C. to 4° C. for 4 hours. The reaction was terminated by rapid vacuum filtration onto glass fiber filters. Radioactivity trapped in the filters was determined and compared to control values in order to ascertain the interactions of the test compound with the norepinephrine uptake site.

in vivo = type: in vivo; settings: female dogs
Method: Eighteen male and eighteen female beagle dogs were received from Ridglan Farms, Mt. Horeb, Wis. […] Each group consisted of four males and four females. All animals/sex/group were scheduled for the primary necropsy at the end of the 13-week treatment period.
The animals were observed twice daily for mortality and moribundity. Clinical examinations were performed daily at the time of dosing and approximately 1-2 and approximately 3 hours following dose administration. Detailed physical examinations were performed weekly. Clinical pathology evaluations (hematology, serum chemistry and urinalysis) were performed prior to the initiation of dose administration (study week-1) and prior to the scheduled necropsy (study week 13). Individual body weights were recorded weekly, beginning approximately two weeks prior to test article administration (study week-2). Mean body weights and mean body weight changes were calculated for each corresponding interval. Final body weights (fasted) were recorded prior to the scheduled necropsy. […] Gross lesions were also examined from the 2.0 and 6.0 mg/kg/day groups.

## Cl.Clc1ccc([C@@]23CNC[C@@H]2C3)cc1Cl (single isomer, unassigned) [(+)-1-(3,4-dichlorophenyl)-3-azabicyclo[3.1.0]hexane hydrochloride]
[1]; both sexes, Crl:CD(SD)IGS BR, rat, in vivo, rats, oral administration for 13 weeks, read-out: no-observed-adverse-effect level (NOAEL)
  NOAEL at 13 weeks: 10 mg/kg/day
[1]; female rats, 25 mg/kg/day oral
  mean cumulative body weight gain, lower than control: 13%
[1]; female rats, 25 mg/kg/day, first week
  food consumption, lower than control: 16%
[1]; female rats, 60 mg/kg/day oral
  mean cumulative body weight gain, lower than control: 13%
  mean body weight, lower than control: 9%
[1]; female rats, 60 mg/kg/day, first week
  food consumption, lower than control: 32%
[1]; female rats, 60 mg/kg/day, second week
  food consumption, lower than control: 11%
[1]; female rats, 10 MG/KG/DAY group, WEEK −2 TO −1 (before dosing)
  weekly food consumption, MEAN: 18. C/ANIMAL/DAY
[1]; female rats, 10 MG/KG/DAY, WEEK 0 TO 1
  weekly food consumption, MEAN: 17. C/ANIMAL/DAY
[1]; female rats, 10 MG/KG/DAY, WEEK 1 TO 2
  weekly food consumption, MEAN: 19. C/ANIMAL/DAY
[1]; female rats, 10 MG/KG/DAY, WEEK 2 TO 3
  weekly food consumption, MEAN: 20. C/ANIMAL/DAY
[1]; female rats, 10 MG/KG/DAY, WEEK 3 TO 4
  weekly food consumption, MEAN: 20. C/ANIMAL/DAY
[1]; female rats, 10 MG/KG/DAY, WEEK 4 TO 5
  weekly food consumption, MEAN: 19. C/ANIMAL/DAY
[1]; female rats, 10 MG/KG/DAY, WEEK 5 TO 6
  weekly food consumption, MEAN: 18. C/ANIMAL/DAY
[1]; female rats, 10 MG/KG/DAY, WEEK 6 TO 7
  weekly food consumption, MEAN: 18. C/ANIMAL/DAY
[1]; female rats, 10 MG/KG/DAY, WEEK 7 TO 8
  weekly food consumption, MEAN: 18. C/ANIMAL/DAY
[1]; female rats, 10 MG/KG/DAY, WEEK 8 TO 9
  weekly food consumption, MEAN: 18. C/ANIMAL/DAY
[1]; female rats, 10 MG/KG/DAY, WEEK 9 TO 10
  weekly food consumption, MEAN: 18. C/ANIMAL/DAY
[1]; female rats, 10 MG/KG/DAY, WEEK 10 TO 11
  weekly food consumption, MEAN: 18. C/ANIMAL/DAY
[1]; female rats, 10 MG/KG/DAY, WEEK 11 TO 12
  weekly food consumption, MEAN: 18. C/ANIMAL/DAY
[1]; female rats, 10 MG/KG/DAY, WEEK 12 TO 13
  weekly food consumption, MEAN: 17. C/ANIMAL/DAY
[1]; female rats, 25 MG/KG/DAY group, WEEK −2 TO −1 (before dosing)
  weekly food consumption, MEAN: 17. C/ANIMAL/DAY
[1]; female rats, 25 MG/KG/DAY, WEEK 0 TO 1
  weekly food consumption, MEAN: 16.** C/ANIMAL/DAY
[1]; female rats, 25 MG/KG/DAY, WEEK 1 TO 2
  weekly food consumption, MEAN: 20. C/ANIMAL/DAY
[1]; female rats, 25 MG/KG/DAY, WEEK 2 TO 3
  weekly food consumption, MEAN: 10. C/ANIMAL/DAY
[1]; female rats, 25 MG/KG/DAY, WEEK 3 TO 4
  weekly food consumption, MEAN: 20. C/ANIMAL/DAY
[1]; female rats, 25 MG/KG/DAY, WEEK 4 TO 5
  weekly food consumption, MEAN: 18. C/ANIMAL/DAY
[1]; female rats, 25 MG/KG/DAY, WEEK 5 TO 6
  weekly food consumption, MEAN: 19. C/ANIMAL/DAY
[1]; female rats, 25 MG/KG/DAY, WEEK 6 TO 7
  weekly food consumption, MEAN: 18. C/ANIMAL/DAY
[1]; female rats, 25 MG/KG/DAY, WEEK 7 TO 8
  weekly food consumption, MEAN: 17. C/ANIMAL/DAY
[1]; female rats, 25 MG/KG/DAY, WEEK 8 TO 9
  weekly food consumption, MEAN: 19. C/ANIMAL/DAY
[1]; female rats, 25 MG/KG/DAY, WEEK 9 TO 10
  weekly food consumption, MEAN: 18. C/ANIMAL/DAY
[1]; female rats, 25 MG/KG/DAY, WEEK 10 TO 11
  weekly food consumption, MEAN: 18. C/ANIMAL/DAY
[1]; female rats, 25 MG/KG/DAY, WEEK 11 TO 12
  weekly food consumption, MEAN: 18. C/ANIMAL/DAY
[1]; female rats, 25 MG/KG/DAY, WEEK 12 TO 13
  weekly food consumption, MEAN: 17. C/ANIMAL/DAY
[1]; female rats, 60 MG/KG/DAY group, WEEK −2 TO −1 (before dosing)
  weekly food consumption, MEAN: 17. C/ANIMAL/DAY
[1]; female rats, 60 MG/KG/DAY, WEEK 0 TO 1
  weekly food consumption, MEAN: 13.** C/ANIMAL/DAY
[1]; female rats, 60 MG/KG/DAY, WEEK 1 TO 2
  weekly food consumption, MEAN: 17.* C/ANIMAL/DAY
[1]; female rats, 60 MG/KG/DAY, WEEK 2 TO 3
  weekly food consumption, MEAN: 18. C/ANIMAL/DAY
[1]; female rats, 60 MG/KG/DAY, WEEK 3 TO 4
  weekly food consumption, MEAN: 16. C/ANIMAL/DAY
[1]; female rats, 60 MG/KG/DAY, WEEK 4 TO 5
  weekly food consumption, MEAN: 17. C/ANIMAL/DAY
[1]; female rats, 60 MG/KG/DAY, WEEK 5 TO 6
  weekly food consumption, MEAN: 18. C/ANIMAL/DAY
[1]; female rats, 60 MG/KG/DAY, WEEK 6 TO 7
  weekly food consumption, MEAN: 18. C/ANIMAL/DAY
[1]; female rats, 60 MG/KG/DAY, WEEK 7 TO 8
  weekly food consumption, MEAN: 18. C/ANIMAL/DAY
[1]; female rats, 60 MG/KG/DAY, WEEK 8 TO 9
  weekly food consumption, MEAN: 18. C/ANIMAL/DAY
[1]; female rats, 60 MG/KG/DAY, WEEK 9 TO 10
  weekly food consumption, MEAN: 17. C/ANIMAL/DAY
[1]; female rats, 60 MG/KG/DAY, WEEK 10 TO 11
  weekly food consumption, MEAN: 17. C/ANIMAL/DAY
[1]; female rats, 60 MG/KG/DAY, WEEK 11 TO 12
  weekly food consumption, MEAN: 18. C/ANIMAL/DAY
[1]; female rats, 60 MG/KG/DAY, WEEK 12 TO 13
  weekly food consumption, MEAN: 17. C/ANIMAL/DAY
[1]; male rats, 25 mg/kg/day oral
  mean cumulative body weight gain, lower than control: 16%
  mean body weight, lower than control: 10%
[1]; male rats, 25 mg/kg/day, first week
  food consumption, lower than control: 8%
[1]; male rats, 60 mg/kg/day oral
  mean cumulative body weight gain, lower than control: 30%
  mean body weight, lower than control: 18%
[1]; male rats, 60 mg/kg/day, first week
  food consumption, lower than control: 19%
[1]; male rats, 60 mg/kg/day, second week
  food consumption, lower than control: 4%
[1]; rat, in vivo, 60 mg/kg/day
  alanine aminotransferase (ALT) level: higher
  alkaline phosphatase (ALP), higher: 35-55%
  bilirubin, higher: 35-55%
[2]; female
  AUC(0-t): 14400 ng·h/mL
[2]; male
  AUC(0-t): 8130 ng·h/mL
[2]
  exposure versus dose: increased dose-dependently
[3]
  affinity for the norepinephrine uptake site compared with the (±) compound: significantly greater affinity
In vivo; 20 mg/kg/day, end of 13-week study
  mean total cumulative body weight change, lower than control: 65%
In vivo; 20 mg/kg/day, first week of dose administration
  mean food consumption, lower than control: 23%
In vivo; 20 mg/kg/day, study week 13
  mean body weight, lower than control: 9%
In vivo; 2.0 MG/KG/DAY group, WEEK −1 TO 0 (before dosing)
  weekly food consumption, MEAN: 295. C/ANIMAL/DAY
In vivo; 2.0 MG/KG/DAY, WEEK 0 TO 1
  weekly food consumption, MEAN: 291. C/ANIMAL/DAY
In vivo; 2.0 MG/KG/DAY, WEEK 1 TO 2
  weekly food consumption, MEAN: 319. C/ANIMAL/DAY
In vivo; 2.0 MG/KG/DAY, WEEK 2 TO 3
  weekly food consumption, MEAN: 361. C/ANIMAL/DAY
In vivo; 2.0 MG/KG/DAY, WEEK 3 TO 4
  weekly food consumption, MEAN: 358. C/ANIMAL/DAY
In vivo; 2.0 MG/KG/DAY, WEEK 4 TO 5
  weekly food consumption, MEAN: 369. C/ANIMAL/DAY
In vivo; 2.0 MG/KG/DAY, WEEK 5 TO 6
  weekly food consumption, MEAN: 360. C/ANIMAL/DAY
In vivo; 2.0 MG/KG/DAY, WEEK 6 TO 7
  weekly food consumption, MEAN: 393. C/ANIMAL/DAY
In vivo; 2.0 MG/KG/DAY, WEEK 7 TO 8
  weekly food consumption, MEAN: 360. C/ANIMAL/DAY
In vivo; 2.0 MG/KG/DAY, WEEK 8 TO 9
  weekly food consumption, MEAN: 383. C/ANIMAL/DAY
